Assay results from patent publication US12304890B2, “R-type pyridyloxycarboxylic acid, salt and ester derivative thereof, and preparation method therefor, and herbicidal composition and application thereof” (Qingdao Kingagroot Chemical Compound Co., Ltd., priority 2018, dated 2025).

Key:
Type in all cases: in vivo
[1] = tested on: Monocotyledonous and dicotyledonous weed seeds and main crop seeds; test: Post-emergence test experiment, other weeds and crops (Table 4, 1000 g a.i./ha); details: 3 weeks in greenhouse, fresh weight inhibition
How it was run: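 Growth inhibition is scored on fresh weight. Spray solutions were made in acetone with tween-80, diluted in water, plus 1.5 L/ha methyl oleate emulsible concentrate. Plants from greenhouse-grown weed and crop seeds were treated post-emergence at 2-3 leaves, 2 weeks after sowing.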

Echinochloa crusgalli = test: Post-emergence test experiment, Echinochloa crusgalli; details: for Activity level (growth inhibition rate), Echinochloa crusgalli: 1000 g a.i./ha, 3 weeks in greenhouse, fresh weight inhibition
Procedure: (§1) The above described growth inhibition rate is fresh weight inhibition rate.
(§2) Post-emergence test experiment: Monocotyledonous and dicotyledonous weed seeds and main crop seeds (i. e. wheat, corn, rice, soybean, cotton, oilseed, millet and sorghum.) were put into a plastic pot loaded with soil. Then covered with 0.5-2 cm soil, the seeds were allowed to grow in good greenhouse environment. The test plants were treated at 2-3 leaf stage 2 weeks after sowing. The test compounds of the invention were dissolved with acetone respectively, then added with tween-80, and using 1.5 liters per hectare of an emulsible concentrate of methyl oleate as a synergist, and diluted by certain amount of water to certain concentration. The solution was sprayed to the plants with a sprayer. Then the plants were cultured for 3 weeks in the greenhouse, and the experiment result of weed controlling effect was listed in tables 4-5.

Digitaria sanguinalis = test: Post-emergence test experiment, Digitaria sanguinalis; details: 1000 g a.i./ha, 3 weeks in greenhouse, fresh weight inhibition
Procedure: as §1, §2

Structure (SMILES) | Activity level (growth inhibition rate), Abutilon theophrasti Medic. [1] | Activity level (growth inhibition rate), Galium aparine [1] | Activity level (growth inhibition rate), Monochoria Vaginalis [1] | Activity level (growth inhibition rate), Echinochloa crusgalli (Echinochloa crusgalli) | Activity level (growth inhibition rate), Digitaria sanguinalis (Digitaria sanguinalis) | inhibition at 200 g/ha (Echinochloa crusgalli; Echinochloa crus-galli, 504 h, 200 g a.i./ha, 3 weeks, weed resistant to ALS inhibitor and ACCe herbicides, read-out: Echinochloa crusgalli, activity level (growth inhibition rate))
C[C@@H](Oc1nc(F)c(Cl)c(N)c1Cl)C(=O)OCc1ccncc1 [Compound 2-344] | 5 (Level 5: the growth inhibition rate is greater than 85%) | 5 (Level 5: the growth inhibition rate is greater than 85%) | 5 (Level 5: the growth inhibition rate is greater than 85%) | 5 (Level 5: the growth inhibition rate is greater than 85%) | 5 (Level 5: the growth inhibition rate is greater than 85%) | 
CC(Oc1nc(F)c(Cl)c(N)c1Cl)C(=O)O.CCC(N)(CO)CO (stereo not drawn) [Compound 2-22] | 5 (Level 5: the growth inhibition rate is greater than 85%) | 5 (Level 5: the growth inhibition rate is greater than 85%) | 5 (Level 5: the growth inhibition rate is greater than 85%) | 5 (Level 5: the growth inhibition rate is greater than 85%) | 5 (Level 5: the growth inhibition rate is greater than 85%) | 
CC(Oc1nc(F)c(Cl)c(N)c1Cl)C(=O)OCc1cccc(C(F)(F)F)c1 (stereo not drawn) [Compound 2-329] | 5 (Level 5: the growth inhibition rate is greater than 85%) | 5 (Level 5: the growth inhibition rate is greater than 85%) | 5 (Level 5: the growth inhibition rate is greater than 85%) | 5 (Level 5: the growth inhibition rate is greater than 85%) | 5 (Level 5: the growth inhibition rate is greater than 85%) | 
CC(Oc1nc(F)c(Cl)c(N)c1Cl)C(=O)SCc1ccccc1C(F)(F)F (stereo not drawn) [Compound 2-328] | 5 (Level 5: the growth inhibition rate is greater than 85%) | 5 (Level 5: the growth inhibition rate is greater than 85%) | 5 (Level 5: the growth inhibition rate is greater than 85%) | 5 (Level 5: the growth inhibition rate is greater than 85%) | 5 (Level 5: the growth inhibition rate is greater than 85%) | 
CC(Oc1nc(F)c(Cl)c(N)c1Cl)C(=O)OCCN (stereo not drawn) [Compound 2-284] | 5 (Level 5: the growth inhibition rate is greater than 85%) | 5 (Level 5: the growth inhibition rate is greater than 85%) | 5 (Level 5: the growth inhibition rate is greater than 85%) | 5 (Level 5: the growth inhibition rate is greater than 85%) | 5 (Level 5: the growth inhibition rate is greater than 85%) | 
CCC(C)CSC(=O)[C@@H](C)Oc1nc(F)c(Cl)c(N)c1Cl (stereo partly drawn) [Compound 2-88] | 5 (Level 5: the growth inhibition rate is greater than 85%) | 5 (Level 5: the growth inhibition rate is greater than 85%) | 5 (Level 5: the growth inhibition rate is greater than 85%) | 5 (Level 5: the growth inhibition rate is greater than 85%) | 5 (Level 5: the growth inhibition rate is greater than 85%) | 
CC(Oc1nc(F)c(Cl)c(N)c1Cl)C(=O)OC(N)C(=O)O (stereo not drawn) [Compound 2-371] | 5 (Level 5: the growth inhibition rate is greater than 85%) | 5 (Level 5: the growth inhibition rate is greater than 85%) | 5 (Level 5: the growth inhibition rate is greater than 85%) | 5 (Level 5: the growth inhibition rate is greater than 85%) | 5 (Level 5: the growth inhibition rate is greater than 85%) | 
COC(=O)[C@@H](C)Oc1nc(Cl)c(Cl)c(N)c1Cl [Compound 2-31] | 5 (Level 5: the growth inhibition rate is greater than 85%) | 5 (Level 5: the growth inhibition rate is greater than 85%) | 5 (Level 5: the growth inhibition rate is greater than 85%) | 5 (Level 5: the growth inhibition rate is greater than 85%) | 5 (Level 5: the growth inhibition rate is greater than 85%) | 
CCCCCCOC(=O)[C@@H](C)Oc1nc(F)c(Cl)c(N)c1Cl [Compound 2-101] | 5 (Level 5: the growth inhibition rate is greater than 85%) | 5 (Level 5: the growth inhibition rate is greater than 85%) | 5 (Level 5: the growth inhibition rate is greater than 85%) | 5 (Level 5: the growth inhibition rate is greater than 85%) | 5 (Level 5: the growth inhibition rate is greater than 85%) | 
CCCCCCCCCCCSC(=O)[C@@H](C)Oc1nc(F)c(Cl)c(N)c1Cl [Compound 2-216] | 5 (Level 5: the growth inhibition rate is greater than 85%) | 5 (Level 5: the growth inhibition rate is greater than 85%) | 5 (Level 5: the growth inhibition rate is greater than 85%) | 5 (Level 5: the growth inhibition rate is greater than 85%) | 5 (Level 5: the growth inhibition rate is greater than 85%) | 
CC(Oc1nc(F)c(Cl)c(N)c1Cl)C(=O)OCc1cccc(Br)c1 (stereo not drawn) [Compound 2-322] | 5 (Level 5: the growth inhibition rate is greater than 85%) | 5 (Level 5: the growth inhibition rate is greater than 85%) | 5 (Level 5: the growth inhibition rate is greater than 85%) | 5 (Level 5: the growth inhibition rate is greater than 85%) | 5 (Level 5: the growth inhibition rate is greater than 85%) | 
CC(C)C(C)SC(=O)[C@@H](C)Oc1nc(F)c(Cl)c(N)c1Cl (stereo partly drawn) [Compound 2-96] | 5 (Level 5: the growth inhibition rate is greater than 85%) | 5 (Level 5: the growth inhibition rate is greater than 85%) | 5 (Level 5: the growth inhibition rate is greater than 85%) | 5 (Level 5: the growth inhibition rate is greater than 85%) | 5 (Level 5: the growth inhibition rate is greater than 85%) | 
C[C@@H](Oc1nc(F)c(Cl)c(N)c1Cl)C(=O)Sc1cccn1C [Compound 2-368] | 5 (Level 5: the growth inhibition rate is greater than 85%) | 5 (Level 5: the growth inhibition rate is greater than 85%) | 5 (Level 5: the growth inhibition rate is greater than 85%) | 5 (Level 5: the growth inhibition rate is greater than 85%) | 5 (Level 5: the growth inhibition rate is greater than 85%) | 
C[C@H](Oc1nc(F)c(Cl)c(N)c1Cl)C(=O)OCC1CCCO1 (stereo partly drawn) [reference compound] |  |  |  |  |  | 5 to 20%
CCC(Oc1nc(F)c(Cl)c(N)c1Cl)C(=O)O.NCCO (stereo not drawn) [Compound 2-10] | 5 (Level 5: the growth inhibition rate is greater than 85%) | 5 (Level 5: the growth inhibition rate is greater than 85%) | 5 (Level 5: the growth inhibition rate is greater than 85%) |  |  | 
COC(=O)C(F)Oc1nc(F)c(Cl)c(N)c1Cl (stereo not drawn) [Compound 2-51] | 5 (Level 5: the growth inhibition rate is greater than 85%) | 5 (Level 5: the growth inhibition rate is greater than 85%) | 5 (Level 5: the growth inhibition rate is greater than 85%) |  |  | 
COC(=O)C(CO)Oc1nc(F)c(Cl)c(N)c1Cl (stereo not drawn) [Compound 2-49] | 5 (Level 5: the growth inhibition rate is greater than 85%) | 5 (Level 5: the growth inhibition rate is greater than 85%) | 5 (Level 5: the growth inhibition rate is greater than 85%) |  |  | 
COC(=O)C(N)Oc1nc(F)c(Cl)c(N)c1Cl (stereo not drawn) [Compound 2-56] | 5 (Level 5: the growth inhibition rate is greater than 85%) | 5 (Level 5: the growth inhibition rate is greater than 85%) | 5 (Level 5: the growth inhibition rate is greater than 85%) |  |  | 
